Measured values as given in EP0942754B1, “CONJUGATES USEFUL IN THE TREATMENT OF PROSTATE CANCER” (priority 1996, dated 1998).
Non-standard residues stand in square brackets, D forms with d. Residues, ends and D or L forms follow the SMILES beside them. *: point of attachment. Doxorubicin(3'-N) = COc1cccc2c1C(=O)c1c(O)c3c(c(O)c1C2=O)C[C@@](O)(C(=O)CO)C[C@@H]3O[C@H]1C[C@H](N*)[C@H](O)[C@H](C)O1; Hyp = O=C(O)[C@@H]1C[C@@H](O)CN1; tBuAla = CC(C)(C)C[C@H](N)C(=O)O; Chg = N[C@H](C(=O)O)C1CCCCC1

Key:
[1] = target: T1, enzymatically active free PSA (Homo sapiens, UniProt P07288); assay: Recognition of oligopeptide-doxorubicin conjugates by free PSA (HPLC, time to 50% cleavage); format: biochemical; conditions: conjugate added to PSA at a molar ratio of 100 to 1 in PSA digestion buffer; free conjugate tested
T1 construct: enzymatically active free PSA
T1 sequence (P07288 25-261): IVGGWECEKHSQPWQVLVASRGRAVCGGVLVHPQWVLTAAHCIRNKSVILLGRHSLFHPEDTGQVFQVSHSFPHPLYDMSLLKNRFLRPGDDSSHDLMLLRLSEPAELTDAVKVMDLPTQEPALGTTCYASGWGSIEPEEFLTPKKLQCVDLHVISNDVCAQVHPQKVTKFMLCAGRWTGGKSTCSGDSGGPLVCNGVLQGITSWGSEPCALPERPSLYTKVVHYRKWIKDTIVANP
Procedure: The conjugates prepared as described in Examples 3-5 were individually dissolved in PSA digestion buffer (12 mM tris(hydroxymethyl)-aminomethane pH8.0, 25 mM NaCl, 0.5 mM CaCl2) and the solution added to PSA at a molar ration of 100 to 1. Alternatively, the PSA digestion buffer utilized is 50 mM tris(hydroxymethyl)-aminomethane pH7.4, 140 mM NaCl. The reaction is quenched after various reaction times by the addition of trifluoroacetic acid (TFA) to a final 1% (volume/volume). Alternatively the reaction is quenched with 10mM ZnCl2. The quenched reaction was analyzed by HPLC on a reversed-phase C18 column using an aqueous 0.1%TFA/acetonitrile gradient. […] If no salt is indicated for the conjugate, the free conjugate was tested. The oligopeptide-cytotoxic agent conjugates described in Examples 4 and 5 were assessed for the amount of time (in minutes) required for 50% cleavage of the oligopeptide with enzymatically active free PSA and 50% cleavage occurred in less than 2 hours for those conjugates.

[2] = tested on: LNCap prostate tumor cells (which express enzymatically active PSA); assay: In vitro cytotoxicity of peptidyl derivatives of doxorubicin, Alamar Blue assay, LNCaP cells; format: cell-based; conditions: 72 HRS incubation, free conjugate tested, read-out: LNCaP Cell Kill in 72 HRS EC 50
Procedure: (§1) The cytotoxicities of the cleaveable oligopeptide-doxorubicin conjugates, prepared as described in Examples 3 and 4, against a line of cells which is known to be killed by unmodified doxorubicin were assessed with an Alamar Blue assay. Specifically, cell cultures of LNCap prostate tumor cells (which express enzymatically active PSA) or DuPRO cells in 96 well plates was diluted with medium ([…]-α [MEM-α]) containing various concentrations of a given conjugate (final plate well volume of 200µl). The cells were incubated for 3 days at 37°C, 20µl of Alamar Blue is added to the assay well. The cells were further incubated and the assay plates were read on a EL-310 ELISA reader at the dual wavelengths of 570 and 600 nm at 4 and 7 hours after addition of Alamar Blue. Relative percentage viability at the various concentration of conjugate tested was then calculated versus control (no conjugate) cultures. If no salt is indicated, the free conjugate was tested.

DuPRO cells = assay: In vitro cytotoxicity of peptidyl derivatives of doxorubicin, Alamar Blue assay, DuPRO cells; format: cell-based; conditions: DuPRO cells (value in parentheses in the LNCaP column), 72 HRS incubation, read-out: Cell Kill in 72 HRS EC 50 (µM), DuPRO
Procedure: as §1

Molecule	Time to 50% Substrate Cleavage by PSA [1]	EC50 [2]	EC50 (DuPRO cells)	Time to 50% Substrate Cleavage by PSA (Min) [1]
COc1cccc2c1C(=O)c1c(O)c3c(c(O)c1C2=O)C[C@@](O)(C(=O)CO)C[C@@H]3O[C@H]1C[C@H](NC(=O)[C@H](CC(C)C)NC(=O)[C@H](CO)NC(=O)[C@H](CCC(N)=O)NC(=O)[C@@H](NC(=O)[C@H](CO)NC(=O)[C@H](C)NC(=O)[C@@H]2C[C@@H](O)CN2C(C)=O)C2CCCCC2)[C@H](O)[C@H](C)O1 [Ac-(4-trans-L-Hyp)ASChgQ-SL-DOX (3'), [N-Ac-(4-trans-L-Hyp)]-Ala-Ser-Chg-Gln-Ser-Leu-Dox] (HELM PEPTIDE1{[ac].[Hyp].A.S.[O=C([C@@H](N[*:1])C1CCCCC1)[*:2]].Q.S.L.[COc1cccc2c1C(=O)c1c(O)c3c(c(O)c1C2=O)C[C@@](O)(C(=O)CO)C[C@@H]3O[C@H]1C[C@H](N[*:1])[C@H](O)[C@H](C)O1]}$$$$V2.0)	20 min	4.5 µM	90 µM	–
COc1cccc2c1C(=O)c1c(O)c3c(c(O)c1C2=O)C[C@@](O)(C(=O)CO)C[C@@H]3O[C@H]1C[C@H](NC(=O)[C@H](CC(C)(C)C)NC(=O)[C@H](CO)NC(=O)[C@H](CCC(N)=O)NC(=O)[C@@H](NC(=O)[C@H](CO)NC(=O)[C@H](C)NC(=O)[C@@H]2C[C@@H](O)CN2C(C)=O)C2CCCCC2)[C@H](O)[C@H](C)O1 [Ac-(4-trans-L-Hyp)ASChgQ-StBuAla-DOX (3')] (Ac-[Hyp]AS[Chg]QS[tBuAla]-{Doxorubicin(3'-N)})	25 min	100 µM	> 100 µM	–
Ac-(4-trans-L-Hyp)ASChgQ-SThi-DOX (3')	–	–	–	INSOLUBLE
PEG(2)-(4-trans-L-Hyp)ASChgQ-SL-DOX (3')	20 min	–	–	–
